# Measurements taken from US10584154B2, “Vesicles comprising lectins expressed on the surface and methods of use thereof to deliver an agent to autophagic and apoptotic cells” (TZU CHI UNIVERSITY, priority 2017, dated 2020).
# Key:
# [1] = tested on: apoptotic cells (mouse B16-F10 cells suspended for 4 hours); test: Blocking of liposomes targeting to apoptotic cells (flow cytometry); type: cell-based; conditions: M6PR+P-selectin, M6PR+PSGL-1 groups
# Experimental: (§1) The mouse B16-F10 cells were suspended for 4 hours to induce autophagy and apoptosis. The autophagy and apoptosis cell were labeled with green fluorescent dyes (GFDs), using Cyto-ID autophagy detection kit (Enzo Life Sciences) (see FIG. 1 and FIG. 3) and CaspGLOW™ Red Active Caspase-3 Staining Kit (BioVision) (see FIG. 2 and FIG. 4) kits, respectively. The autophagy and apoptosis cell containing populations were engaged with various protein conjugated liposomes, which were labeled with fluorescent dye calcein-red (CR). The percentage of B16-F10-liposome engaged populations (GFD and CR double positive populations) were determined using flow cytometry. The levels of liposomes and fluorescent beads engaged with none conjugated cells (the “unconjugated” groups) were normalized to 100% (see FIG. 1 and FIG. 2).
# (§2) The mouse B16-F10 cells were suspended for 4 hours and then treated with blocking antibody or soluble M6PR recombinant protein plus additional M6PR+P-selectin-conjugated liposomes. The autophagy and apoptosis cell were labeled with green fluorescent dyes (GFDs), using Cyto-ID autophagy detection kit (Enzo Life Sciences) and CaspGLOW™ Red Active Caspase-3 Staining Kit (BioVision) kits, respectively. […] The percentage of B16-F10-liposome engaged populations (GFD and CR double positive populations) were determined using flow cytometry. […]
# [2] = tested on: autophagy cells (mouse B16-F10 cells suspended for 4 hours); test: Blocking of liposomes targeting to autophagy cells (flow cytometry); type: cell-based; conditions: M6PR+P-selectin, M6PR+PSGL-1 groups
# Experimental: as §1, §2
substance,measurement,setting,value
sialyl-lewis x oligosaccharide,"antidote: blocking of P-selectin, E-selectin and PSGL-1-conjugated liposomes targeting to apoptotic cells",[1],able to serve as the antidotes
same,"antidote: blocking of P-selectin, E-selectin and PSGL-1-conjugated liposomes targeting to autophagy cells",[2],able to serve as the antidotes
